A word on the melting point: it is the temperature, or range, at which the solid turns liquid.

Where only a bound is given, the exact number is not on record here.

As for `CCc1cc2oc(=O)c(C#N)c(C)c2cc1CC`, the melting point was 169 °C.

For the molecule `C=CC(=O)OCCCCCCCCOc1ccc(-c2ccc(OCCCCCCCCOC(=O)C=C)c(F)c2F)c(F)c1F`, the melting point lay within 60.5 to 61.4 °C.

Regarding `Cc1ccc(S(=O)(=O)n2ccc3cc(-c4ccccc4)cnc32)cc1`, the melting point fell in the range of 151 to 152 °C.

Turning to `CCOC(=O)C1(C(N)=O)OCCO1`, the melting point fell in the range of 99 to 100 °C.

`CCc1cc2c(c(Sc3ccccc3)cc(=O)n2Cc2ccc(C(=O)O)cc2)c(CC)n1`: the melting point was in the range of 260 to 262 °C.

Regarding `CCNC(=O)n1nc(Oc2c(Cl)cc(C(F)(F)F)cc2Cl)cc1C(C)C`, the melting point was 74 to 76 °C.

Turning to `COc1cc(-c2ccc(O)c(C(C)(C)C)c2)cc(C=C2SC(N(C)C)=NC2=O)c1O`, the melting point lay within 272 to 274 °C.

On to `COCc1c(CO)ncc2[nH]c3cccc(Cc4ccc(Cl)cc4)c3c12`, for which the melting point fell in the range of 220 to 222 °C.

Molecule `CNc1nc(C)cc(-n2ccc3ccccc32)n1` came in with a melting point of 160 to 162 °C.

As for `Fc1ccc(-c2ncn(C3CCNCC3)c2-c2ccnc(Oc3cccc(C(F)(F)F)c3)n2)cc1`, the melting point was in the range of 137 to 138 °C.

In turn, `Nc1sc2c(c1C(=O)c1ccc3ccccc3c1)CCN(Cc1ccccc1)C2` showed a melting point of 174 to 177 °C.

In the case of `CS(=O)(=O)c1ccc(-n2c(-c3ccc(F)cc3)nc(O)c(C#N)c2=O)cc1`, the melting point was more than 285 °C.

As for `CC(C)(C)OC(=O)N1CCn2c(c(C(N)=O)c(Cl)c2C2CC2)C1`, the melting point was in the range of 102 to 104 °C.

The molecule `S=C=Nc1ccc2sc(-c3cccs3)nc2c1` yielded a melting point of 147 to 149 °C.

On to `CCCCCCOC(Cc1ccc(OCCc2nc(-c3ccccc3)oc2C)c2ccsc12)C(=O)O` (stereo unspecified), for which the melting point is 79 to 82 °C.

`O=C1C2CCC(N1c1cccs1)n1c(=O)n(-c3ccccc3)c(=O)n12` (stereo unspecified) had a melting point of 238 to 244 °C.

Molecule `O=c1[nH]nc2ccc(OCCCN3CCC(OC(c4ccccc4)c4ccccc4)CC3)nn12` yielded a melting point of 209 to 211 °C.

The molecule `CSc1ccc(C=C2c3ccc(F)cc3CC2C)cc1` (stereo unspecified) yielded a melting point of 67 to 70 °C.

In turn, `Cc1ccc([N+](=O)[O-])c(C)c1C1OCCO1` gave a melting point of 69 to 71 °C.

`C#CCN(C)CC(O)c1cccc(O)c1` (stereo unspecified) returned a melting point of 102 to 103 °C.

For the molecule `N#Cc1cccc2c1C(=O)OC2O` (stereo unspecified), the melting point was 138 to 140 °C.

`NC1CCc2ccccc2NC1=O` (stereo unspecified) came in with a melting point of 161 to 162 °C.

In turn, `COC(=O)C(C)(C)OCC#Cc1cc(Cl)ccc1NS(=O)(=O)c1cc(C)cc(C)c1` returned a melting point of 78 to 80 °C.

For `CCN(c1ccc(Cl)cc1[N+](=O)[O-])S(=O)(=O)c1ccc(C)cc1`, the melting point was in the range of 132 to 134 °C.

Turning to `CCCCCCC1(c2ccccc2)CC(O)=CC(=O)O1` (stereo unspecified), the melting point is 119 to 120 °C.

Molecule `CC(C)NOP(=O)(O)C(C(C)C)N(CC(=O)OCCCl)C(=O)C(F)(F)F` (stereo unspecified) returned a melting point of 87.5 to 89 °C.

For the molecule `N#Cc1ccc(NC(=O)NC(=O)c2ccccc2F)c(Cl)c1Cl`, the melting point lay in the range of 298 to 300 °C.

On to `CCc1cc(Cl)c(-n2ncc(C#N)c2N)c(Cl)c1`, for which the melting point lay within 189 to 190 °C.

The molecule `CCOC(=O)Cc1ccc(NC(=O)Nc2ccccc2OC)cc1` showed a melting point of 107 to 109 °C.

In the case of `CCN(CC)CCOc1ccc(CNC(=O)C#Cc2ccc(C)cc2Cl)cc1`, the melting point fell in the range of 135 to 138 °C.

Molecule `CCN(CCO)CCN1C(=O)c2ccccc2C1=O` returned a melting point of 56 to 58 °C.

`COc1ccc2nc(NC(=O)C(CC3CCCC3)c3ccc(S(=O)(=O)NCc4cccs4)cc3)sc2n1` (stereo unspecified) gave a melting point of 263 to 268 °C.

Turning to `CC1(CO)Cc2nnc(-c3ccc(-c4ccccc4)cc3Cl)n2CCS1` (stereo unspecified), the melting point lay in the range of 166 to 169 °C.

`CNC(=NS(=O)(=O)c1ccc(C)cc1)NCCSCc1[nH]cnc1C` returned a melting point of 138 °C.

`CCOc1cc(Cc2cnc(N)nc2N)cc2c1OC(C)(C)C=C2C(C)(O)CC` (stereo unspecified) displayed a melting point of 127 to 128 °C.

As for `CC(=Cc1ccc(N)cc1)c1ccc2c(c1)C(C)(C)CCC2(C)C`, the melting point was in the range of 106 to 108 °C.

For `O=C(O)CC(=Cc1ccccc1)C(=O)O`, the melting point was 114 °C.

Take `CC(=O)C(Cl)=CSC(C)(C)C`: the melting point was 73 °C.

Consider `CC(C)OC(=O)Nc1ccc(C2=NNC(=O)CC2C)cc1` (stereo unspecified), for which the melting point was 236 to 237 °C.

`O=[N+]([O-])c1ccc2c(c1)nc(/C=C/c1ccccc1)n2-c1ccccn1` registered a melting point of 200 to 202 °C.

The molecule `COc1ccc(COC/C(=C/c2ccc(C(=O)O)cc2)Cn2ccnc2)cc1` showed a melting point of 120 to 122 °C.

Turning to `Cc1c(C)c2c(c(C)c1NC(=O)c1ccc(Cl)cc1)C(c1ccc(C(C)C)cc1)C1(CCN(C)CC1)O2` (stereo unspecified), the melting point is 293 to 295 °C.

For the molecule `O=C(c1cccs1)c1cnn2c(-c3cccc(NCC=C(c4ccccc4)c4ccccc4)c3)ccnc12`, the melting point was in the range of 156 to 158 °C.

`CCCC(CCC)NC(=O)c1ccc2oc(OC)nc2c1` yielded a melting point of 137 to 138 °C.

With `Cc1c(Cl)c(C=O)c(C)c2c1CC(C)(C)C2`, the melting point worked out at 127 °C.

Regarding `O=C1NCC(CN2CCN(c3cccc(C(F)(F)F)c3)CC2)O1` (stereo unspecified), the melting point is 122 to 124 °C.

Molecule `CC(C(=O)O)C(=O)NCCC=C1c2ccccc2CCc2ccccc21` (stereo unspecified) registered a melting point of 174 to 176 °C.

For `S=C1NC(c2ccc(Cl)cc2)c2ccccc2C1CCN1CCOCC1` (stereo unspecified), the melting point lay in the range of 228 to 231 °C.

`CCCCCC(=O)NCCCSc1ccncc1` registered a melting point of 48 to 49 °C.

With `Cc1ccc(F)c(C(C)Oc2ccc3nc(-c4ccccc4OC(N)=O)sc3c2)c1Cl` (stereo unspecified), the melting point is 205 °C.

For `CC(C)(C)OC(=O)N1CCC(Cc2ccc(Cl)cc2)(C(=O)O)CC1`, the melting point fell in the range of 179 to 180 °C.

The molecule `C=C1CCC2C3CCC4CC(OCOC)CCC4(C)C3CCC12C` (stereo unspecified) had a melting point of 73 to 75 °C.

With `Cc1nc(C)n(-c2cc([C@@H]3C[C@H]3c3nc4ccccc4n3C)nc(C#N)n2)n1` (relative stereo), the melting point lay within 229 to 231 °C.

In the case of `CC1CC(=O)C2OCC1O2` (stereo unspecified), the melting point was in the range of 122 to 125 °C.

On to `O=C(O)[C@@H]1Cc2ccccc2N1C(=O)CN1CCN(Cc2ccc(Cl)cc2)CC1`, for which the melting point was 219 to 221 °C.

Molecule `CN1CCC2(C)c3cc(O)cc(Br)c3N(C)C12` (stereo unspecified) had a melting point of 175 to 177 °C.

Take `O=C(O)Cc1csc(NC(=O)C(Oc2ccc(F)cc2)c2ccc(S(=O)(=O)C3CC3)cc2)n1` (stereo unspecified): the melting point fell in the range of 72 to 73 °C.

`O=C(O)COc1cc(Cl)ccc1C(=O)NCc1ccc2c(c1)OCO2` showed a melting point of 208 to 209 °C.

As to `Cc1nc(N2CCN(Cc3ccccc3C(=O)O)C2=O)sc1C(=O)NCc1ccccc1`, the melting point is 153 to 156 °C.

`O=C(O)Cc1cccc2c(-c3ccc(F)cc3)nccc12` yielded a melting point of 214 to 216 °C.

The molecule `CCc1cc(Oc2cncc3sc(C(N)=O)cc23)ccc1Cl` returned a melting point of 185 to 187 °C.

With `Fc1ccc(-c2ncn(CCCN3CCOCC3)c2-c2ccnc(Cl)c2)cc1`, the melting point is 97 to 97.5 °C.

Consider `Nc1ccc(-c2nc3c(O)cccc3c(=O)[nH]2)cc1`, for which the melting point is more than 230 °C.

As for `C=CCNCC(O)COc1cccc2c1CC(=O)N2` (stereo unspecified), the melting point lay within 124 to 127 °C.

The molecule `CC12CCC(=O)CC1CCC1C2CCC2(C)C(C(N)=O)CCC12` (stereo unspecified) showed a melting point of 259 to 262 °C.

On to `CC(Oc1cc(F)cc(F)c1)C1=NCCN1` (stereo unspecified), for which the melting point was 134 °C.

For `COC1(c2cc(F)cc(Sc3ccc4c(c3)O[C@H](C)C(=O)N4C)c2)CCOCC1`, the melting point fell in the range of 107 to 109 °C.

As for `O=C(Nc1ccc(Cc2ccc(O)c(O)c2)cc1)C1CSc2ccccc2C1=O` (stereo unspecified), the melting point is 216 to 218 °C.

As for `CC1Oc2ccc(CN3CC=C(c4ccccc4)CC3)cc2NC1=O` (stereo unspecified), the melting point fell in the range of 248 to 255 °C.

In turn, `Cc1ccc(CN2CCC(O)CC2)cc1` gave a melting point of 72 to 74 °C.

Take `CCCCCCCCOc1ccc(CCC(N)(CO)CCC)cc1` (stereo unspecified): the melting point fell in the range of 43 to 47 °C.

As to `O=C(O)Cc1c(C(=O)O)c2cc(Oc3ccc(Cl)c(Cl)c3)ccc2n1-c1ccc(OCC(F)(F)F)cc1`, the melting point fell in the range of 205 to 210 °C.

Regarding `NC(=O)c1c(Cl)c(Cl)c(Cl)c(Cl)c1Cl`, the melting point lay within 268 to 270 °C.

For `Cc1cncc(C)c1-c1c(C)cc(C(C#N)C#N)cc1C`, the melting point was 58 to 60 °C.

`CCCCOCCC(C)CCCC(C)(C)c1cc(O)c(C(C)(C)CCCC(C)CCOCCCC)cc1O` (stereo unspecified) returned a melting point of 86 to 89 °C.

In the case of `CC(=O)OC1CSC(Oc2cncc(-c3ccc(C)cc3Cl)c2)C(OC(C)=O)C1OC(C)=O` (stereo unspecified), the melting point came to 162 °C.

The molecule `Cn1c2c(c3cccc(F)c31)C(=O)CCC2` came in with a melting point of 126 to 128 °C.

As to `O=C1C=C(c2ccccc2O)CC1`, the melting point is 162 to 165 °C.

Molecule `Brc1ccc(-c2ccc3ccccc3c2)cc1` registered a melting point of 121 to 123 °C.

Turning to `CCCCOCCOc1ccc(-c2ccc(N3CCC4(C3)OCCO4)c(C=C(C)C(=O)O)c2)cc1`, the melting point was in the range of 130 to 132 °C.

The molecule `COCCOC(=O)C(=O)Nc1nc(-c2ccccc2)cs1` gave a melting point of 118 to 120 °C.

Take `COc1ccc(S(=O)(=O)N(Cc2cc(C(C)(C)C)c(O)c(C(C)(C)C)c2)c2cccnc2)cc1`: the melting point was 142 to 143 °C.

`OC(c1cc(-c2ccc(Cl)cc2)c(-c2ccc(Cl)cc2)[nH]1)(C(F)(F)F)C(F)(F)F` displayed a melting point of 144 to 145 °C.

For the molecule `CS(=O)(=O)c1sccc1SCc1ccccc1`, the melting point fell in the range of 95 to 97 °C.

`Cc1ccc(-c2nsc3ccccc23)cc1` registered a melting point of 56 °C.

As to `COc1ccc(Br)cc1CC#N`, the melting point fell in the range of 60.5 to 60.9 °C.

As for `Cn1nccc1COC(=O)Cc1ccccc1`, the melting point was 80 to 83 °C.

`COC(=O)c1cccc(-c2ccc(OC)c3c2CC(C)(C)O3)c1` showed a melting point of 89 to 91 °C.

In turn, `Oc1cc2c(cc1CCCCc1ccccc1)OC(CCc1ccccc1)C2` (stereo unspecified) had a melting point of 50 to 53 °C.

For the molecule `CCCC(=O)c1sc(NC(=O)c2ccncc2)nc1-c1ccco1`, the melting point fell in the range of 191 to 194 °C.

Molecule `CC(=O)Nc1nonc1-c1nc2ccccc2n1CC(=O)c1ccc(Cl)cc1` registered a melting point of 202 to 205 °C.

The values above are taken from a melting point compilation (Tetko et al.; mined from patent text by program, amines drawn as free bases though some values may be those of a salt).
